Experimental data reported in patent publication US5863918A, “Naphthalene derivatives” (Fujisawa Pharmaceutical Co., Ltd., priority 1994, dated 1999).
Counter-ions that a name gives are not always drawn.

Legend:
human IP receptor = assay: Receptor binding assay ([^3 H]-iloprost binding to human IP receptor expressed in COS7); conditions: test compound 1×10^-6 M; 10 nM [^3 H]-iloprost; 60 minutes, 30° C.
Method: cDNA of human IP receptor was cloned and expressed in COS7 using pCDM8 vector in a similar manner to that described in the literatures [J. Biol. Chem., Vol. 269, No. 16, pp.12173-12178 (1994): Circulation, Vol. 90, No. 4, pp1643-1647 (1994) FEBS Letters 344 (1994) 74-78].
After transfection, cells which expressed human IP receptor were collected with ce l scraper at 4° C. and stored in -80° C.
The composition of assay buffer was as follows: 20 mM MES (pH 6.0), 10 mM MgCl2, 1 mM EDTA, and 0.1 mM PMSF. Frozen cells were thawed and aliquots (4.5×10^5 cells) were incubated for 60 minutes under shaking at 30° C. in plastic tubes in 100 μl of assay buffer with 10 nM of [^3 H]-iloprost in the presence or absence of the test compound (1×10^-6 M).
To determine the non-specific binding, iloprost at 10 μM was added. Each assay was preformed in duplicate. Reaction mixture was filtered through a Whatman GF/C glass filter to stop the reaction. After washing the filter with ice-cold assay buffer, the radioactivity of the filter was countered. Non-specific binding was subtracted from total binding to yield specific binding. The effect of the test compound was expressed as % inhibition of specific [^3 H]-iloprost binding.

[1] = tested on: human platelet aggregation induced by ADP; assay: Inhibition of human platelet aggregation induced by ADP; assay type: cell-based; conditions: ADP 2.5 μM, platelet rich plasma, mean ± S.E.
Method: Human blood was obtained from healthy volunteers and mixed with 1/10 volume of 3.8% sodium citrate, pH 7.4. The citrate blood was centrifuged at 150×g for 10 minutes and the platelet rich plasma (PRP) was removed. The remaining blood was centrifuged for a further 10 minutes at 1500×g to prepare the platelet poor plasma (PPP), which was used as a reference for platelet aggregation. Aggregation studies were carried out using HEMATRACER 801 (NBS, Japan), a 8 channel aggregometer. 25 μl of sample solution and 225 μl of PRP were mixed and stirred at 1000 rpm for 2 minutes at 37° C. Aggregation was induced by ADP solution at the final concentration of 2.5 μM.

[2] = tested on: mean arterial blood pressure in conscious rats; assay: Effect on mean arterial blood pressure in conscious rats; assay type: in vivo, rat (male Sprague-Dawley); conditions: 10 mg/kg; intravenous (femoral vein)
Method: Male Sprague-Dawley rats, aged 8-9 weeks, were anesthetized with ether. A polyethylene cannula filled with heparin solution was inserted into the femoral artery of the rats to measure mean blood pressure. Mean blood pressure was measured with a pressure transducer and recorded on a polygraph. The test compound dissolved in ethanol, polyethylene glycol and distilled water (1:1:1) was administered through a polyethylene cannula inserted into the femoral vein in a volume of 1 ml/kg. Intravenous hypotensive effect of the test compound was expressed as the maximal decrease (R max). Briefly, R max was expressed as maximal % change compared to mean blood pressure prior to the administration of the test compound.

Question: For `O=C(O)COc1cccc2c1CC[C@](O)(COC(=O)N(c1ccccc1)c1ccccc1)C2` [Sodium salt of (2R)-[5-(carboxymethoxy)-2-hydroxy-1,2,3,4-tetrahydro-2-naphthyl]methyl N,N-diphenylcarbamate], which “Inhibition (%) of specific [^3 H]-iloprost binding” value (human IP receptor) is on record?
Answer: 96.5%

Question: With `O=C(O)COc1cccc2c1CCC(O)(COC(=O)N(c1ccccc1)c1ccccc1)C2` (stereo not shown) [Test compound (1), Sodium salt of [5-(carboxymethoxy)-2-hydroxy-1,2,3,4-tetrahydro-2-naphthyl]methyl N,N-diphenylcarbamate] as the molecule, how does the inhibition at 0.1 µM ([1]; 1.0 × 10^-7 M) read?
Answer: 97 ± 1.2%

Question: What about the “R max (%): maximal decrease (maximal % change compared to mean blood pressure prior to administration)” value [2] of the same molecule?
Answer: 27.5%

Question: Which inhibition at 1 µM ([1]; 1.0 × 10^-6 M) does the source give for `O=C(O)COc1cccc2c1CCC(Cn1nc(C(c3ccccc3)c3ccccc3)ccc1=O)C2` (stereo not shown) [Test compound (2), 2-[(1,2,3,4-Tetrahydro-5-carboxymethoxy-2-naphthyl)methyl]-6-diphenylmethyl-3(2H)-pyridazinone] here?
Answer: 100 ± 0.4%
